Measurements: patent US20210253598A1, “ARYL ANNULATED MACROCYCLIC INDOLE DERIVATIVES” (priority 2017, published 2021)
Where a name gives a salt, the structure may show the parent alone. Read-outs that look alike come from different tables or passages of the source.

What was measured:
SUDHL10 [1] = assay: Induction of caspase-3/7 activity in SUDHL10 cells (Assay 4); assay type: cell-based
In short: (§1)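 Luminescent Caspase-Glo 3/7 read-out in SUDHL5 and SUDHL10 cells after 3 h compound exposure at 37 °C, followed by 1 h reagent incubation.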

MCL-1 = MCL-1 (Homo sapiens, UniProt Q07820, K194A/K197A/R201A); assay: Protein-protein interaction assay MCL-1/Noxa BH3 peptide, TR-FRET (MCL-1 assay, Assay 1); assay type: binding; settings: MCL-1 Assay [M] (median), MBP-MCL-1 / Noxa BH3 peptide
In short: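 TR-FRET competition between compounds and a biotin-PEG Noxa BH3 tracer for 1 nM MBP-MCL-1 (residues 173-321). Incubation was 1 h at 22 °C in the dark, then overnight at 4 °C, in 50 mM Tris pH 7 buffer with KF and DTT, after a 10-min compound pre-equilibration. Normalized ratios were fitted with a 4-parameter Hill equation to give IC50.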

SUDHL5 [2] = assay: Induction of caspase-3/7 activity in SUDHL5 cells (Assay 4); assay type: cell-based
In short: as §1

MV-4-11 = assay: Anti-proliferative effect in MV-4-11 cells, CellTiter-Glo (Assay 7); assay type: cell-based; settings: several values per example
Experimental: (§2) Assessment of the Anti-Proliferative Effect of Compounds in Different Cell Lines
(§3) The impact of compounds on the proliferation of different cell lines was assessed using the CellTiter-Glo® Luminescent Cell Viability reagent from Promega (G7573).
(§4) In parallel, cells were plated in a reference (day 0) plate for time zero determination. Cells were incubated in a humidified incubator at 37° C. overnight.
(§5) Rim wells were excluded. The cells were incubated for 72 hours in a humidified incubator at 37° C. The day 0 plate was measured by adding 30 μL/well of CTG solution (CellTiter-Glo® Luminescent Cell Viability reagent, Promega G7573) to time zero wells in the reference plate followed by a 10 minutes incubation and luminescence reading at 0.1 ms. using the PHERAstar FS microplate reader (BMG Labtech).
(§6) After 72 hours incubation, the treated plates were measured in the same way as the day 0 plate mentioned above. The Bella DRC Master Sheet was used to calculate IC50s, with CI=day 0 values and C0=DMSO control values.

SUDHL10 [3] = assay: Induction of cytotoxicity in SUDHL10 cells, CellTiter-Glo (Assay 6); assay type: cell-based; settings: SUDHL10, 5 hours incubation, median, read-out: Cytotox SUDHL10 [M] (median)
In short: (§7)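 Run alongside apoptosis assays, this cytotoxicity measure used a 5-hour compound incubation at 37° C in humidified conditions, following overnight attachment. Cell viability was quantified by CellTiter-Glo luminescence.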

SUDHL5 [4] = assay: Anti-proliferative effect in SUDHL5 cells, CellTiter-Glo (Assay 7); assay type: cell-based
In short: (§8)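 Overnight seeding at 37 °C, then 72 h treatment with compound; day 0 plate read at start. Luminescent ATP-based viability readout (CellTiter-Glo). IC50 normalised between day 0 and DMSO values.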

SUDHL5 [5] = assay: Induction of cytotoxicity in SUDHL5 cells, CellTiter-Glo (Assay 6); assay type: cell-based; settings: SUDHL5, 5 hours incubation, median, read-out: Cytotox SUDHL5 [M] (median)
In short: as §7

AMO-1 = assay: Anti-proliferative effect in AMO-1 cells, CellTiter-Glo (Assay 7); assay type: cell-based; settings: several values per example
Experimental: as §2, §3, §4, §5, §6

A2780 = assay: Anti-proliferative effect in A2780 cells, CellTiter-Glo (Assay 7); assay type: cell-based; settings: Homo sapiens, A2780, 72 h, A2780, 72 hours incubation, CellTiter-Glo; several values per example; read-out: Antiproli A2780
In short: as §8

[6] = Homo sapiens, SU-DHL10, 3 h, SUDHL10, 3 hours treatment, Caspase-Glo 3/7, median, read-out: Caspase SUDHL10 [M] (median)
[7] = Homo sapiens, SU-DHL-5, 3 h, SUDHL5, 3 hours treatment, Caspase-Glo 3/7, median, read-out: Caspase SUDHL5 [M] (median)
[8] = Homo sapiens, MV4-11, 72 h, MV-4-11, 72 hours incubation, CellTiter-Glo, read-out: Antiproli MV-4-11
[9] = Homo sapiens, SU-DHL-5, 72 h, SUDHL5, 72 hours incubation, CellTiter-Glo, median, read-out: Antiproli SUDHL5 [M] (median)
[10] = Homo sapiens, AMO1, 72 h, AMO-1, 72 hours incubation, CellTiter-Glo, read-out: Antiproli AMO-1
[11] = read-out: Caspase SUDHL10 [M] (median), SUDHL10, 3 hours treatment, Caspase-Glo 3/7
[12] = read-out: Caspase SUDHL5 [M] (median), SUDHL5, 3 hours treatment, Caspase-Glo 3/7
[13] = read-out: Antiproli MV-4-11, MV-4-11, 72 hours incubation, CellTiter-Glo
[14] = read-out: Antiproli SUDHL5 [M] (median), SUDHL5, 72 hours incubation, CellTiter-Glo
[15] = read-out: Antiproli AMO-1, AMO-1, 72 hours incubation, CellTiter-Glo

MCL-1, sequence (Q07820 173-321 K194A/K197A/R201A, looked up): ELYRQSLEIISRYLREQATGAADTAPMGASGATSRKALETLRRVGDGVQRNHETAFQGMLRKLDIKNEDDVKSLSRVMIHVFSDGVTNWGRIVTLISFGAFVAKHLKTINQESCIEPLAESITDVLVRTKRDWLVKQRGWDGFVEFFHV

Structure (SMILES) | EC50 (SUDHL10 [1]; [6]) | IC50 (MCL-1) | EC50 (SUDHL5 [2]; [7]) | IC50 (MV-4-11; [8]) | IC50 (SUDHL10 [3]; Homo sapiens, SU-DHL10, 5 h) | IC50 (SUDHL5 [4]; [9]) | IC50 (SUDHL5 [5]; Homo sapiens, SU-DHL-5, 5 h) | IC50 (AMO-1; [10]) | other results
CCc1nn(CCN2CCOCC2)c2c1-c1c(Cl)ccc3c(CCCOc4cccc5cc(F)ccc45)c(C(=O)O)n(c13)Cc1ccccc1COC2 (racemic) [Example 51, (rac)-3-Chloro-4-ethyl-17-{3-[(6-fluoronaphthalen-1-yl)oxy]propyl}-6-[2-(morpholin-4-yl)ethyl]-6,7,9,14-tetrahydroindolo[7,1-fg]pyrazolo[3,4-d][2,8]benzoxazacycloundecine-16-carboxylic Acid] | 1.8e-06 M | 1.5e-09 M | 8.7e-07 M | 1.96e-06 M | 1.9e-06 M | 7.1e-07 M | 1.1e-06 M | 4.26e-06 M | IC50 (MV-4-11; MV-4-11, 72 hours incubation, CellTiter-Glo, read-out: Antiproli MV-4-11): 2.58e-06 M; IC50 (AMO-1; AMO-1, 72 hours incubation, CellTiter-Glo, read-out: Antiproli AMO-1): 2.64e-06 M
Cc1c2c(nn1C)COCc1ccccc1Cn1c(C(=O)O)c(CCCOc3cccc4cc(F)ccc34)c3ccc(F)c-2c31 (racemic) [Example 64, (rac)-15-Fluoro-1-(3-((6-fluoronaphthalen-1-yl)oxy)propyl)-13,14-dimethyl-4,9,11,13-tetrahydrobenzo[3,4]pyrazolo[4′,3′:9,10][1,6]oxaazacycloundecino[8,7,6-hi]indole-2-carboxylic Acid] | 6e-06 M | 1.5e-09 M | 1.7e-06 M | – | 3.2e-06 M | 1.5e-06 M | 2.2e-06 M | 7.46e-06 M | IC50 (A2780): 17.1 µM
Cc1nn(C)c2c1-c1c(F)ccc3c(CCCOc4cccc5c4CCCC5)c(C(=O)O)n(c13)Cc1ccccc1COC2 (racemic) [Example 83, (rac)-15-Fluoro-12,14-dimethyl-1-(3-((5,6,7,8-tetrahydronaphthalen-1-yl)oxy)propyl)-4,9,11,12-tetrahydrobenzo[3,4]pyrazolo[4′,3′:9,10][1]oxa[6]azacycloundecino[8,7,6-hi]indole-2-carboxylic Acid] | 1.2e-05 M | 1e-08 M | 4.6e-06 M | 1.18e-05 M | 5.5e-06 M | 4.9e-06 M | 3.4e-06 M | 1.61e-05 M | –
Cc1cc(OCCCc2c(C(=O)O)n3c4c(c(F)ccc24)-c2c(C)nn(C)c2COCc2ccccc2C3)cc(C)c1Cl (racemic) [Example 85, (rac)-1-(3-(4-chloro-3,5-dimethylphenoxy)propyl)-15-fluoro-12,14-dimethyl-4,9,11,12-tetrahydrobenzo[3,4]pyrazolo[4′,3′:9,10][1]oxa[6]azacycloundecino[8,7,6-hi]indole-2-carboxylic Acid] | 2e-05 M | 1.2e-08 M | 3.7e-06 M | 1.7e-05 M | 6.5e-06 M | 6.9e-06 M | 3.3e-06 M | 2.37e-05 M | –
CCc1nn(C)c2c1-c1c(F)ccc3c(CCCOc4cc(C)c(Cl)c(C)c4)c(C(=O)O)n(c13)Cc1ccccc1COC2 (racemic) [Example 86, (rac)-1-(3-(4-Chloro-3,5-dimethylphenoxy)propyl)-14-ethyl-15-fluoro-12-methyl-4,9,11,12-tetrahydrobenzo[3,4]pyrazolo[4′,3′:9,10][1,6]oxaazacycloundecino[8,7,6-hi]indole-2-carboxylic Acid] | 6.9e-06 M | 1.1e-08 M | 2.7e-06 M | 1.42e-05 M | 5.2e-06 M | 4.3e-06 M | 2.9e-06 M | 1.69e-05 M | –
CCc1nn(C)c2c1-c1c(F)ccc3c(CCCOc4ccc(F)c5ccccc45)c(C(=O)O)n(c13)Cc1ccccc1COC2 (racemic) [Example 89, (rac)-14-Ethyl-15-fluoro-1-(3-((4-fluoronaphthalen-1-yl)oxy)propyl)-12-methyl-4,9,11,12-tetrahydrobenzo[3,4]pyrazolo[4′,3′:9,10][1,6]oxaazacycloundecino[8,7,6-hi]indole-2-carboxylic Acid] | 8.3e-06 M | 1.2e-08 M | 2.9e-06 M | 8.44e-06 M | 7.5e-06 M | 4e-06 M | 2.6e-06 M | 1.28e-05 M | –
CCc1nn(C)c2c1-c1c(Cl)ccc3c(CCCOc4cccc5cc(F)ccc45)c(C(=O)O)n(c13)Cc1ccccc1COC2 (single isomer, unassigned; enantiomer 2) [Example 59, (−)-3-Chloro-4-ethyl-17-{3-[(6-fluoronaphthalen-1-yl)oxy]propyl}-6-methyl-6,7,9,14-tetrahydro-indolo[7,1-fg]pyrazolo[3,4-d][2,8]benzoxazacycloundecine-16-carboxylic acid-N-ethylethanamine Salt (Enantiomer 2)] | – | 1e-08 M | – | – | 8.2e-06 M | – | 2.2e-06 M | – | EC50 (SUDHL10 [1]; Homo sapiens, SU-DHL10, 3 h, read-out: Caspase SUDHL10 [M] (median), SUDHL10, 3 hours treatment, Caspase-Glo 3/7): 7.9e-06 M; EC50 (SUDHL5 [2]; Homo sapiens, SU-DHL-5, 3 h, read-out: Caspase SUDHL5 [M] (median), SUDHL5, 3 hours treatment, Caspase-Glo 3/7): 1.9e-06 M; IC50 (MV-4-11; Homo sapiens, MV4-11, 72 h, read-out: Antiproli MV-4-11 [M], MV-4-11, 72 hours incubation, CellTiter-Glo): 4.5e-06 M; IC50 (SUDHL5 [4]; Homo sapiens, SU-DHL-5, 72 h, read-out: Antiproli SUDHL5 [M] (median), SUDHL5, 72 hours incubation, CellTiter-Glo): 2.6e-06 M; IC50 (AMO-1; Homo sapiens, AMO1, 72 h, read-out: Antiproli AMO-1 [M], AMO-1, 72 hours incubation, CellTiter-Glo): 7.14e-06 M
Cc1c2c(nn1C)COCc1ccccc1Cn1c(C(=O)O)c(CCCOc3cccc4ccccc34)c3ccc(F)c-2c31 (single isomer, unassigned; enantiomer 2) [Example 69, (+)-3-Fluoro-4,5-dimethyl-17-{3-[(naphthalen-1-yl)oxy]propyl}-5,7,9,14-tetrahydroindolo[7,1-fg]pyrazolo[3,4-d][2,8]benzoxazacycloundecine-16-carboxylic acid-N-ethylethanamine Salt (Enantiomer 2)] | – | 2.1e-08 M | – | – | – | – | – | – | EC50 (SUDHL10 [1]; [11]): > 3.3e-05 M; EC50 (SUDHL5 [2]; [12]): 1.3e-05 M; IC50 (MV-4-11; [13]): 1.51e-05 M; IC50 (SUDHL10 [3]): > 3.3e-05 M; IC50 (SUDHL5 [4]; [14]): 1.2e-05 M; IC50 (SUDHL5 [5]): 1.4e-05 M; IC50 (AMO-1; [15]): 2.6e-05 M
CCc1c2c(nn1C)COCc1ccccc1Cn1c(C(=O)O)c(CCCOc3cccc4cc(F)ccc34)c3ccc(F)c-2c31 (single isomer, unassigned; enantiomer 2) [Example 75, (+)-4-Ethyl-3-fluoro-17-{3-[(6-fluoronaphthalen-1-yl)oxy]propyl}-5-methyl-5,7,9,14-tetrahydro-indolo[7,1-fg]pyrazolo[3,4-d][2,8]benzoxazacycloundecine-16-carboxylic acid-N-ethylethanamine Salt (Enantiomer 2)] | – | 3e-09 M | – | – | – | – | – | – | EC50 (SUDHL10 [1]; [11]): 1.5e-05 M; EC50 (SUDHL5 [2]; [12]): 4.4e-06 M; IC50 (MV-4-11; [13]): 1.64e-05 M; IC50 (SUDHL10 [3]): 1e-05 M; IC50 (SUDHL5 [4]; [14]): 5.8e-06 M; IC50 (SUDHL5 [5]): 5.2e-06 M; IC50 (AMO-1; [15]): 1.25e-05 M
